Patent US20250197351A1, “C4-CARBOXYLIC ACID-S[…] DERIVATIVES AND METHODS OF USING” (priority 2022, published 2025)
Where “and” joins values, the source holds several entries; their conditions need not be identical. Equal entries are not always repeated.

Key:
[1] = biological target: T1, 5-HT2A receptor (5-HT2AR) (Mus musculus, UniProt P35363); experiment: Drug-induced Head Twitch Response (HTR); type: in vivo; conditions: 1 mg/kg i.p., 15-to-30-minute window post-drug, relative to vehicle
T1 construct: host or cells: C57BL/6 mice, in vivo (neuronal receptor)

[2] = Mouse pharmacokinetic (PK) study, parent compound and psilocin metabolite in plasma; type: in vivo; conditions: for bioavailability: male, C57Bl/6, mouse, plasma, po; for bioavailability / F(%): parent compound, AUC0-tlast used; for AUC0-inf/Dose / AUC0-tlast/Dose / Cmax/Dose: parent compound in plasma; for Plasma concentration of parent compound / Plasma concentration of psilocin: individual animals
Description: Briefly, the procedure was as follows. […] 19, 2022.

[3] = biological target: T2, 5-HT1A receptor (Homo sapiens, UniProt P08908); experiment: cAMP-Glo assay of 5-HT1A receptor modulation, CHO-K1/5-HT1A/Ga15 (+5-HT1A) vs CHO-K1/Ga15 (−5-HT1A) cells; type: cell-based; conditions: +5-HT1A vs −5-HT1A CHO-K1 cells; 4 μM forskolin; increasing ligand concentration
T2 construct: host or cells: CHO-K1 (co-expressing Ga15)
T2 sequence (P08908 1-422): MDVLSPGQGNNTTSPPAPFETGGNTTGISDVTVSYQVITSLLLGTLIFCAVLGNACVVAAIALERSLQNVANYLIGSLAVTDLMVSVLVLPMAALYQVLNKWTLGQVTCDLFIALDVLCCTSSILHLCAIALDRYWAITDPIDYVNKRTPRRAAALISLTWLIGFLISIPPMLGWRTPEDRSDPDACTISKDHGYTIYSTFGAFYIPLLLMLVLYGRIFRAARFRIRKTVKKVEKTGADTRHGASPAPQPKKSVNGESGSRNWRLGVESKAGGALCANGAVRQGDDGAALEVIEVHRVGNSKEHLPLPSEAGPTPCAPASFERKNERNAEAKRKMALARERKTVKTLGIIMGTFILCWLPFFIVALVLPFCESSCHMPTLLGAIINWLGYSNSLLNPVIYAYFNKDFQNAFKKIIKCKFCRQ

[4] = 1 mg/kg i.v., each animal, 1 mg/kg
[5] = 1 mg/kg p.o., each animal, 1 mg/kg
[6] = 3 mg/kg p.o., each animal, 3 mg/kg
[7] = 10 mg/kg p.o., each animal, 10 mg/kg
[8] = mouse, prodrug 1 mg/kg i.v., 8 h, BLQ = below 0.2 ng/mL
[9] = mouse, prodrug 1 mg/kg p.o. (psilocybin: 1.56 mg/kg), 8 h, BLQ = below 0.2 ng/mL
[10] = mouse, prodrug 1 mg/kg p.o. (psilocybin: 1.56 mg/kg), 24 h, BLQ = below 0.2 ng/mL
[11] = mouse, prodrug 3 mg/kg p.o., 24 h, BLQ = below 0.2 ng/mL
[12] = mouse, prodrug 10 mg/kg p.o., 24 h, BLQ = below 0.2 ng/mL

T1 sequence (P35363 whole entry): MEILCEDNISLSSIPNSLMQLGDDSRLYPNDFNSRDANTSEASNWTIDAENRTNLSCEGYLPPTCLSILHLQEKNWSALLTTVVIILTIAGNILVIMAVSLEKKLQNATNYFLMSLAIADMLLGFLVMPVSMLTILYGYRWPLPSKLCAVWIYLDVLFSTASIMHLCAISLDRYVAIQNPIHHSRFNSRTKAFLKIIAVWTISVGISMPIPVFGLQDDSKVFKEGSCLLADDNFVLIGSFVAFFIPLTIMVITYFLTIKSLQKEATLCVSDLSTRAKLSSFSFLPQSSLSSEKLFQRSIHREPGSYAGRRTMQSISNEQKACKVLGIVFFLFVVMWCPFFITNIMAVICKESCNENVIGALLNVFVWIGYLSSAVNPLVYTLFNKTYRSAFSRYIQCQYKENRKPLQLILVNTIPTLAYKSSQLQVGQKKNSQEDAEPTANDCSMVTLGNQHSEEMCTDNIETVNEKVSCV

With `CN(C)CCc1c[nH]c2cccc(OC(=O)c3ccc(Br)cc3)c12` [C(I)] the “Head Twitch Response (HTR) incidence” value [1] was “Elevated incidences of HTR”, the bioavailability ([2]; 1 mg/kg, 1 mg/kg p.o., M37 (i.v. group) considered as an outlier, mean ± SD) was 2.3 ± 1.76% and the bioavailability ([2]; 3 mg/kg, 3 mg/kg p.o., M37 (i.v. group) considered as an outlier, mean ± SD) was 3.18 ± 0.189%. The bioavailability ([2]; 3 mg/kg, 3 mg/kg p.o., if M37 (i.v. group) is considered as an outlier, each animal) was 3.02%, the bioavailability ([2]; 10 mg/kg, 10 mg/kg p.o., M37 (i.v. group) considered as an outlier, mean ± SD) was 3.22 ± 0.731% and the bioavailability ([2]; 10 mg/kg, 10 mg/kg p.o., if M37 (i.v. group) is considered as an outlier, each animal) was 2.71%. The Plasma concentration ([2]; parent C(I), 1 mg/kg i.v., 8 h, each animal, BLQ = below 0.5 ng/mL, 1 mg/kg) was “BLQ (2×) and No Peak”, the Plasma concentration ([2]; parent C(I), 1 mg/kg p.o., 1 h, each animal, BLQ = below 0.5 ng/mL, 1 mg/kg) was “BLQ” and the Plasma concentration ([2]; parent C(I), 1 mg/kg p.o., 2 h, each animal, BLQ = below 0.5 ng/mL, 1 mg/kg) was “BLQ”. The Plasma concentration ([2]; parent C(I), 1 mg/kg p.o., 4 h, each animal, BLQ = below 0.5 ng/mL, 1 mg/kg) was “BLQ”, the Plasma concentration ([2]; parent C(I), 1 mg/kg p.o., 6 h, each animal, BLQ = below 0.5 ng/mL) was “BLQ” and the Plasma concentration ([2]; parent C(I), 1 mg/kg p.o., 8 h, each animal, BLQ = below 0.5 ng/mL) was “BLQ”. For the same compound, the Plasma concentration ([2]; parent C(I), 1 mg/kg p.o., 24 h, each animal, BLQ = below 0.5 ng/mL, 1 mg/kg) was “No Peak and No (2×)”, the Plasma concentration ([2]; parent C(I), 3 mg/kg p.o., 1 h, each animal, BLQ = below 0.5 ng/mL, 3 mg/kg) was 1.33 ng/mL and the Plasma concentration ([2]; parent C(I), 3 mg/kg p.o., 6 h, each animal, BLQ = below 0.5 ng/mL, 3 mg/kg) was 0.250 ng/mL. For the same compound, the Plasma concentration ([2]; parent C(I), 3 mg/kg p.o., 8 h, each animal, BLQ = below 0.5 ng/mL) was “BLQ”, the Plasma concentration ([2]; parent C(I), 3 mg/kg p.o., 24 h, each animal, BLQ = below 0.5 ng/mL) was “No Peak” and the Plasma concentration ([2]; parent C(I), 10 mg/kg p.o., 4 h, each animal, BLQ = below 0.5 ng/mL, 10 mg/kg) was 3.01 ng/mL. The Plasma concentration ([2]; parent C(I), 10 mg/kg p.o., 24 h, each animal, BLQ = below 0.5 ng/mL) was “No”, the AUC0-inf/Dose [2, 4] was 1014 kg·ng·h/mL/mg and 64.4 kg·ng·h/mL/mg and 51.9 kg·ng·h/mL/mg and the AUC0-tlast/Dose [2, 4] was 1006 kg·ng·h/mL/mg and 63.7 kg·ng·h/mL/mg and 51.4 kg·ng·h/mL/mg. The AUC0-tlast/Dose ([2]; 1 mg/kg i.v., mean of n = 2 (without the possible outlier M37)) was 57.6 (n = 2) h*kg*ng/mL/mg, the AUC0-inf/Dose ([2]; 1 mg/kg i.v., mean ± SD) was 377 ± 552 kg·ng·h/mL/mg and the AUC0-tlast/Dose ([2]; 1 mg/kg i.v., mean ± SD) was 374 ± 548 kg·ng·h/mL/mg. The AUC0-tlast/Dose [2, 5] was 2.09 kg·ng·h/mL/mg and 0.169 kg·ng·h/mL/mg and 1.75 kg·ng·h/mL/mg, the Cmax/Dose [2, 5] was 0.816 kg·ng/mL/mg and 0.54 kg·ng/mL/mg and 1.28 kg·ng/mL/mg and the AUC0-tlast/Dose ([2]; 1 mg/kg p.o., mean ± SD) was 1.34 ± 1.02 kg·ng·h/mL/mg. The Cmax/Dose ([2]; 1 mg/kg p.o., mean ± SD) was 0.877 ± 0.376 kg·ng/mL/mg, the AUC0-tlast/Dose [2, 6] was 1.75 kg·ng·h/mL/mg and 1.82 kg·ng·h/mL/mg and 1.97 kg·ng·h/mL/mg and the Cmax/Dose [2, 6] was 0.650 kg·ng/mL/mg and 0.720 kg·ng/mL/mg and 0.780 kg·ng/mL/mg. The AUC0-tlast/Dose ([2]; 3 mg/kg p.o., mean ± SD) was 1.85 ± 0.110 kg·ng·h/mL/mg, the Cmax/Dose ([2]; 3 mg/kg p.o., mean ± SD) was 0.717 ± 0.0651 kg·ng/mL/mg and the AUC0-tlast/Dose [2, 7] was 1.58 kg·ng·h/mL/mg and 1.68 kg·ng·h/mL/mg and 2.36 kg·ng·h/mL/mg. The Cmax/Dose [2, 7] was 0.720 kg·ng/mL/mg and 0.710 kg·ng/mL/mg and 1.09 kg·ng/mL/mg, the AUC0-tlast/Dose ([2]; 10 mg/kg p.o., mean ± SD) was 1.87 ± 0.425 kg·ng·h/mL/mg and the Cmax/Dose ([2]; 10 mg/kg p.o., mean ± SD) was 0.840 ± 0.217 kg·ng/mL/mg. For the same compound, the “F(%)” value ([2]; 1 mg/kg p.o., if M37 (i.v. group) is considered as an outlier, each animal, 1 mg/kg) was 3.01%, the “F(%)” value ([2]; 10 mg/kg p.o., if M37 (i.v. group) is considered as an outlier, each animal, 10 mg/kg) was 2.90% and the Plasma concentration ([2]; psilocin, prodrug 1 mg/kg i.v., 6 h, each animal, BLQ = below 0.2 ng/mL) was “BLQ”. The Plasma concentration ([2]; psilocin, prodrug 1 mg/kg i.v., 8 h, each animal, BLQ = below 0.2 ng/mL) was “BLQ”, the Plasma concentration ([2]; psilocin, prodrug 1 mg/kg p.o., 8 h, each animal, BLQ = below 0.2 ng/mL) was “BLQ” and the Plasma concentration ([2]; psilocin, prodrug 1 mg/kg p.o., 24 h, each animal, BLQ = below 0.2 ng/mL) was “No Peak (2×) and BLQ”. For the same compound, the Plasma concentration ([2]; psilocin, prodrug 3 mg/kg p.o., 24 h, each animal, BLQ = below 0.2 ng/mL) was “No Peak”, the Plasma concentration ([2]; psilocin, prodrug 10 mg/kg p.o., 24 h, each animal, BLQ = below 0.2 ng/mL) was “BLQ” and the “5-HT1A receptor modulation (reduction of forskolin-induced cAMP)” value [3] was “mild receptor modulation at higher ligand concentrations”.
With `COCCOCCOCC(=O)Oc1cccc2[nH]cc(CCN(C)C)c12` [C(III)] the “Head Twitch Response (HTR) incidence” value [1] was “Elevated incidences of HTR” and the “5-HT1A receptor modulation (reduction of forskolin-induced cAMP)” value [3] was “significant receptor modulation”.
With `COc1ccc(C(=O)Oc2cccc3[nH]cc(CCN(C)C)c23)cc1` [C(V)] the “Head Twitch Response (HTR) incidence” value [1] was “Elevated incidences of HTR”, the “Detection of parent compound in plasma after i.v. administration” value ([2]; mouse, 1 mg/kg i.v.) was “only detectable in i.v. administered animals” and the “Plasma concentration of parent compound” value ([2]; mouse, 1 mg/kg i.v., 0.25 h, BLQ = below 0.5 ng/mL (C(V)), 1 mg/kg) was “BLQ”. For the same compound, the “Plasma concentration of parent compound” value ([2]; mouse, 1 mg/kg i.v., 0.5 h, BLQ = below 0.5 ng/mL (C(V)), 1 mg/kg) was “BLQ and No Peak (2×)”, the “Plasma concentration of parent compound” value ([2]; mouse, 1 mg/kg i.v., 1 h) was “No Peak” and the “Plasma concentration of parent compound” value ([2]; mouse, 1 mg/kg i.v., 2 h) was “No Peak”. For the same compound, the “Plasma concentration of parent compound” value ([2]; mouse, 1 mg/kg i.v., 4 h) was “No Peak”, the “Plasma concentration of parent compound” value ([2]; mouse, 1 mg/kg i.v., 6 h) was “No Peak” and the “Plasma concentration of parent compound” value ([2]; mouse, 1 mg/kg i.v., 8 h) was “No Peak”. The “Detection of parent compound in plasma after oral administration” value ([2]; mouse, orally administered, any dose (1, 3, 10 mg/kg)) was “not detectable”, the “Plasma concentration of psilocin” value [2, 8] was “BLQ” and the “Plasma concentration of psilocin” value [2, 9] was “BLQ”. For the same compound, the “Plasma concentration of psilocin” value [2, 10] was “No Peak and BLQ (2×)”, the “Plasma concentration of psilocin” value [2, 11] was “No Peak and BLQ (2×)” and the “Plasma concentration of psilocin” value [2, 12] was “BLQ (2×) and No Peak”. For the same compound, the “5-HT1A receptor modulation (reduction of forskolin-induced cAMP)” value [3] was “mild receptor modulation at higher ligand concentrations”.
With `CN(C)CCc1c[nH]c2cccc(OC(=O)c3c(F)c(F)c(F)c(F)c3F)c12` [C(VI)] the “Head Twitch Response (HTR) incidence” value [1] was “Elevated incidences of HTR”, the “Detection of parent compound in plasma” value ([2]; mouse, any animals at any dose (i.v. and oral)) was “not detectable in any animals at any dose” and the “Plasma concentration of psilocin” value [2, 8] was “BLQ”. The “Plasma concentration of psilocin” value [2, 9] was “BLQ”, the “Plasma concentration of psilocin” value [2, 10] was “BLQ and No Peak (2×)” and the “Plasma concentration of psilocin” value [2, 11] was “BLQ (2×) and No Peak”. For the same compound, the “Plasma concentration of psilocin” value [2, 12] was “BLQ” and the “5-HT1A receptor modulation (reduction of forskolin-induced cAMP)” value [3] was “no receptor modulation at higher ligand concentrations”.
For `CN(C)CCc1c[nH]c2cccc(OC(=O)c3cccc(C(=O)Oc4cccc5[nH]cc(CCN(C)C)c45)c3)c12` [C(VII)], the “Head Twitch Response (HTR) incidence” value [1] was “Elevated incidences of HTR” and the “5-HT1A receptor modulation (reduction of forskolin-induced cAMP)” value [3] was “no significant receptor modulation”.
With `COC(=O)c1cccc(C(=O)Oc2cccc3[nH]cc(CCN(C)C)c23)c1` [C(XLIII)] the “5-HT1A receptor modulation (reduction of forskolin-induced cAMP)” value [3] was “receptor modulation at higher ligand concentrations”.
With `NCCc1c[nH]c2ccc(O)cc12` [serotonin, reference compound] the “5-HT1A receptor modulation (reduction of forskolin-induced cAMP)” value [3] was “reduction in cAMP levels”.
